The record followed here is paper PMC4311625, “Structural determinants for binding to angiotensin converting enzyme 2 (ACE2) and angiotensin receptors 1 and 2” (Frontiers in Pharmacology, 2015).

Like-named read-outs stand apart in the source and are kept apart here. Peptide text beside a SMILES is read from it.

This experiment deals with ACE2 (Homo sapiens, UniProt Q9BYF1). Briefly: ACE2 quenched fluorescence substrate (QFS) inhibition assay. Type of experiment: biochemical. The note with it: for inhibition at 10 µM: read-out: ACE2 inhibition of terminally modified IHPF analogs, 10 μM (Table 3, in brackets), peptide 10 μM. The protocol:
Angiotensin converting enzyme 2 QFS assays were performed for 1 h in 50 uM QFS, 1 M NaCl, 100 mM Tris-Cl, pH 6.5 at 37∘C on a BMG LabTechnologies (Offenburg, Germany), FLUOStar Optima in a 96 well-plate. Subsequent data analysis determined the inhibition of native AngII, its analogs and C-terminal peptides compared to the ACE2 QFS substrate [MCA-APK(DNP)-OH, [Vickers et al., 2002]]. […] Three controls were included in each ACE2 QFS assay; AngII (100 and 10 μM), IHPF (100 μM) and a known ACE2 inhibitor (1 nM; Millennium Pharmaceuticals, Cambridge, MA, USA). QFS assay results were accepted when ACE2 inhibition by AngII (10 μM) was 80 ± 5%, IHPF was 65 ± –5% and the ([Qian et al., 1999]) ‘Millennium Inhibitor’ was 70 ± –5%. Acceptable coefficients of variation (CV; standard deviation/mean × 100) for sample triplicates were <7%.
A library of 40 tetrapeptides based on the four C-terminal residues of Ang II (Ile-His-Pro-Phe/IHPF) was generated and screened for ACE2 binding at 100 μM in order to identify key residues of the C-terminus of Ang II involved in binding to the ACE2 active site. […] Several substitutions (Val, Tyr, Ala, Gly, Phe, Trp, Pro, His, Ile, and Leu) were made in order to further probe the highly hydrophobic and cyclic specificity of the C-terminus of Ang II. A β-napthalene amino acid (Nth) derivative was used as a highly hydrophobic non-natural cyclic residue substitute, and Arg and Lys were substituted for histidine at the second position from the N-terminus of the tetrapeptide to determine if positive charge or other structural or positional requirements were important.

Where [1] appears, read: pH 6.5, read-out: ACE2 inhibition of terminally modified IHPF analogs, 100 μM (Table 3).
[2] abbreviates: read-out: ACE2 inhibition of terminally modified IHPF analogs, 100 μM (Table 3), peptide 100 μM, 50 uM QFS, 1 M NaCl, 100 mM Tris-Cl pH 6.5, 37 °C, 1 h.
[3] abbreviates: peptide 100 μM, 50 uM QFS MCA-APK(DNP)-OH, 1 M NaCl, 100 mM Tris-Cl pH 6.5, 37 °C, 1 h, fluorescence, triplicate, read-out: ACE2 inhibition of single substitution analogs of the C-terminal of AngII (Table 1).
[4] abbreviates: peptide 100 μM, 50 uM QFS, 1 M NaCl, 100 mM Tris-Cl pH 6.5, 37 °C, 1 h, triplicate, read-out: Inhibition (%) of ACE2, single and multiple residue substitution analogs (Table 2).
[5] abbreviates: 50 uM QFS, 1 M NaCl, 100 mM Tris-Cl pH 6.5, 37 °C, 1 h.

ACE2, sequence (Q9BYF1 18-805, species assumed): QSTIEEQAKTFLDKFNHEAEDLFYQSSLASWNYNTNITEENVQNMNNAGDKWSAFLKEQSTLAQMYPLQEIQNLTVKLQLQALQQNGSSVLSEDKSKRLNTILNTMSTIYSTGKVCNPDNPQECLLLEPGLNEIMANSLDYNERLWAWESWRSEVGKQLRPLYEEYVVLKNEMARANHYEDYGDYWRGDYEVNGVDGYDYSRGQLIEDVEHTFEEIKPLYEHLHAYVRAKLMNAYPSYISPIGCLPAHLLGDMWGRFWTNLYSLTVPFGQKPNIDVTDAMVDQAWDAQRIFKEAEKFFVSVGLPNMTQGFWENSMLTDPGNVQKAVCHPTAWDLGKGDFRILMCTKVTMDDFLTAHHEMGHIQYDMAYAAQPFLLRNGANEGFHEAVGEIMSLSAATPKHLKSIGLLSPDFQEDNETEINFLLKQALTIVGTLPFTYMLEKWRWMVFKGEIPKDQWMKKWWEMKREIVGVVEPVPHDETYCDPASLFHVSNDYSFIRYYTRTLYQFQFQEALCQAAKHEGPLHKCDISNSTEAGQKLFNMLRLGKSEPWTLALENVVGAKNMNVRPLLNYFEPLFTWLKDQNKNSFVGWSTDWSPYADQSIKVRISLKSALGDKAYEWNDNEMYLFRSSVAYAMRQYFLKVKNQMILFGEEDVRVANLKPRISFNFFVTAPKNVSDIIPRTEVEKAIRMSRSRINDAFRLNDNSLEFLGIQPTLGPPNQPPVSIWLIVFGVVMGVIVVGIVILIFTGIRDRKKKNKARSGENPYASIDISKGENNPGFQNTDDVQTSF

For `NC(=O)[C@H](Cc1ccccc1)NC(=O)[C@@H]1CCCN1C(=O)[C@H](Cc1ccc(O)cc1)NC(=O)[C@@H]1CCCN1` [C-amidated PYPF] (H-PYPF-NH2), under setting [1], the inhibition at 100 µM was determined as 33%.

Take `CC(C)[C@H](NC(=O)[C@H](Cc1ccc(O)cc1)NC(=O)[C@@H]1CCCN1)C(=O)N[C@@H](Cc1ccccc1)C(N)=O` [C-amidated PYVF] (H-PYVF-NH2): the inhibition at 100 µM under setting [2] was found to be 26%.

`CC[C@H](C)[C@H](N)C(=O)N[C@@H](Cc1c[nH]cn1)C(=O)NCC(=O)N[C@@H](Cc1ccccc1)C(=O)O` [IHGF] (H-IHGF-OH): the inhibition at 100 µM under setting [3] worked out at 0%.

Consider `CC(C)[C@H](NC(=O)[C@H](Cc1c[nH]cn1)NC(=O)[C@@H]1CCCN1)C(=O)N[C@@H](Cc1ccccc1)C(N)=O` [C-amidated PHVF] (H-PHVF-NH2), for which, under setting [2], the inhibition at 100 µM was determined as 12%.

For the compound `CC(C)[C@H](NC(=O)[C@H](Cc1ccc(O)cc1)NC(=O)[C@@H]1CCCN1)C(=O)N[C@@H](Cc1ccccc1)C(=O)O` [PYVF] (H-PYVF-OH), the inhibition at 100 µM under setting [4] amounted to 94% and the inhibition at 100 µM under setting [2] is 94%. Further, the inhibition at 10 µM under setting [5] came to 51%.

Turning to `N[C@@H](Cc1c[nH]cn1)C(=O)N[C@@H](Cc1c[nH]cn1)C(=O)N1CCC[C@H]1C(=O)N[C@@H](Cc1ccccc1)C(=O)O` [HHPF] (H-HHPF-OH), the inhibition at 100 µM under setting [3] is 12%.

For the compound `CC[C@H](C)[C@H](N)C(=O)N[C@H](C(=O)N1CCC[C@H]1C(=O)N[C@@H](Cc1ccccc1)C(=O)O)C(C)C` [IVPF] (H-IVPF-OH), the inhibition at 100 µM under setting [3] stood at 28%.

Consider `CC[C@H](C)[C@H](NC(C)=O)C(=O)N[C@@H](Cc1ccc(O)cc1)C(=O)N1CCC[C@H]1C(=O)N[C@@H](Cc1ccccc1)C(=O)O` [N-acetylated IYPF] (Ac-IYPF-OH), for which, under setting [5], the inhibition at 10 µM stood at 62%. Also, under setting [2], the inhibition at 100 µM came to 93%.

For `CC(C)[C@H](NC(=O)[C@H](Cc1c[nH]cn1)NC(=O)[C@@H]1CCCN1)C(=O)N[C@@H](Cc1ccccc1)C(=O)O` [PHVF] (H-PHVF-OH), the inhibition at 100 µM runs as follows: under setting [4], 93%; under setting [2], 93%. Moreover, the inhibition at 10 µM under setting [5] came to 49%.

On to `CC(=O)N[C@H](C(=O)N[C@@H](Cc1ccc(O)cc1)C(=O)N1CCC[C@H]1C(=O)N[C@@H](Cc1ccccc1)C(N)=O)C(C)C` [N-acetylated/C-amidated VYPF] (Ac-VYPF-NH2), for which, under setting [1], the inhibition at 100 µM worked out at 30%.

On to `CC[C@H](C)[C@H](N)C(=O)N[C@@H](Cc1c[nH]cn1)C(=O)N1CCC[C@H]1C(=O)N[C@@H](Cc1ccccc1)C(N)=O` [C-amidated IHPF] (H-IHPF-NH2), for which the inhibition at 100 µM under setting [2] is 18%.

In the case of `C[C@H](N)C(=O)N[C@@H](Cc1c[nH]cn1)C(=O)N1CCC[C@H]1C(=O)N[C@@H](Cc1ccccc1)C(=O)O` [AHPF] (H-AHPF-OH), under setting [3], the inhibition at 100 µM came out at 59%.

For `CC[C@H](C)[C@H](N)C(=O)N[C@@H](Cc1c[nH]cn1)C(=O)N1CCC[C@H]1C(=O)N[C@H](C(=O)O)[C@@H](C)CC` [IHPI] (H-IHPI-OH), the inhibition at 100 µM under setting [3] is 36%.

With `CC(=O)N1CCC[C@H]1C(=O)N[C@@H](Cc1ccc(O)cc1)C(=O)N1CCC[C@H]1C(=O)N[C@@H](Cc1ccccc1)C(N)=O` [N-acetylated/C-amidated PYPF] (Ac-PYPF-NH2), the inhibition at 100 µM under setting [1] amounted to 28%.

`CC[C@H](C)[C@H](N)C(=O)N[C@@H](Cc1c[nH]cn1)C(=O)N1CCC[C@H]1C(=O)N[C@@H](Cc1ccc(O)cc1)C(=O)O` [IHPY] (H-IHPY-OH): the inhibition at 100 µM under setting [3] worked out at 50%.

Consider `CC[C@H](C)[C@H](N)C(=O)N[C@H](C(=O)N1CCC[C@H]1C(=O)N[C@@H](Cc1ccccc1)C(=O)O)[C@@H](C)CC` [IIPF] (H-IIPF-OH), for which the inhibition at 100 µM under setting [3] worked out at 32%.

Regarding `O=C(O)[C@H](Cc1ccccc1)NC(=O)[C@@H]1CCCN1C(=O)[C@H](Cc1c[nH]cn1)NC(=O)[C@@H]1CCCN1` [PHPF] (H-PHPF-OH), the inhibition at 100 µM worked out at 78% under setting [3] and 81% under setting [2]. Also, the inhibition at 10 µM under setting [5] stood at 20%.

As for `CC[C@H](C)[C@H](N)C(=O)N[C@@H](Cc1c[nH]cn1)C(=O)N[C@H](C(=O)N[C@@H](Cc1ccccc1)C(=O)O)[C@@H](C)CC` [IHIF] (H-IHIF-OH), the inhibition at 100 µM under setting [3] is 44%.

Take `CC(=O)N1CCC[C@H]1C(=O)N[C@@H](Cc1ccc(O)cc1)C(=O)N[C@H](C(=O)N[C@@H](Cc1ccccc1)C(N)=O)C(C)C` [N-acetylated/C-amidated PYVF] (Ac-PYVF-NH2): the inhibition at 100 µM under setting [2] stood at 25%.

For `CC[C@H](C)[C@H](N)C(=O)N[C@@H](C)C(=O)N1CCC[C@H]1C(=O)N[C@@H](Cc1ccccc1)C(=O)O` [IAPF] (H-IAPF-OH), under setting [3], the inhibition at 100 µM was found to be 37%.

With `N[C@@H](Cc1c[nH]c2ccccc12)C(=O)N[C@@H](Cc1c[nH]cn1)C(=O)N1CCC[C@H]1C(=O)N[C@@H](Cc1ccccc1)C(=O)O` [WHPF] (H-WHPF-OH), the inhibition at 100 µM under setting [3] was 0%.

In the case of `CC(=O)N1CCC[C@H]1C(=O)N[C@@H](Cc1ccc(O)cc1)C(=O)N1CCC[C@H]1C(=O)N[C@@H](Cc1ccccc1)C(=O)O` [N-acetylated PYPF] (Ac-PYPF-OH), under setting [5], the inhibition at 10 µM was 44%. Under setting [2], the inhibition at 100 µM is 87%.

Consider `CC[C@H](C)[C@H](N)C(=O)N[C@@H](Cc1c[nH]cn1)C(=O)N[C@@H](Cc1c[nH]cn1)C(=O)N[C@@H](Cc1ccccc1)C(=O)O` [IHHF] (H-IHHF-OH), for which the inhibition at 100 µM under setting [3] was determined as 14%.

For the compound `CC(=O)N[C@H](C(=O)N[C@@H](Cc1c[nH]cn1)C(=O)N[C@H](C(=O)N[C@@H](Cc1ccccc1)C(N)=O)C(C)C)C(C)C` [N-acetylated/C-amidated VHVF] (Ac-VHVF-NH2), the inhibition at 10 µM under setting [5] stood at 4%. Moreover, the inhibition at 100 µM under setting [2] stood at 21%.

Take `CC[C@H](C)[C@H](NC(C)=O)C(=O)N[C@@H](Cc1ccc(O)cc1)C(=O)N1CCC[C@H]1C(=O)N[C@@H](Cc1ccccc1)C(N)=O` [N-acetylated/C-amidated IYPF] (Ac-IYPF-NH2): the inhibition at 100 µM under setting [2] was 18%.

Consider `CC[C@H](C)[C@H](N)C(=O)N[C@@H](Cc1c[nH]cn1)C(=O)N1CCC[C@H]1C(=O)NCC(=O)O` [IHPG] (H-IHPG-OH), for which the inhibition at 100 µM under setting [3] was 41%.

With `CC[C@H](C)[C@H](N)C(=O)N[C@@H](Cc1c[nH]cn1)C(=O)N[C@@H](Cc1c[nH]c2ccccc12)C(=O)N[C@@H](Cc1ccccc1)C(=O)O` [IHWF] (H-IHWF-OH), under setting [3], the inhibition at 100 µM amounted to 0%.

As to `CC[C@H](C)[C@H](N)C(=O)N1CCC[C@H]1C(=O)N1CCC[C@H]1C(=O)N[C@@H](Cc1ccccc1)C(=O)O` [IPPF] (H-IPPF-OH), the inhibition at 100 µM under setting [3] worked out at 0%.

With `CC[C@H](C)[C@H](NC(C)=O)C(=O)N[C@@H](Cc1c[nH]cn1)C(=O)N1CCC[C@H]1C(=O)N[C@@H](Cc1ccccc1)C(N)=O` [N-acetylated/C-amidated IHPF] (Ac-IHPF-NH2), the inhibition at 100 µM under setting [2] was 26%.

Turning to `CC[C@H](C)[C@H](N)C(=O)N[C@@H](Cc1ccc(O)cc1)C(=O)N[C@H](C(=O)N[C@@H](Cc1ccccc1)C(=O)O)C(C)C` [IYVF] (H-IYVF-OH), the inhibition at 100 µM under setting [4] is 77%.

In the case of `CC[C@H](C)[C@H](NC(C)=O)C(=O)N[C@@H](Cc1c[nH]cn1)C(=O)N1CCC[C@H]1C(=O)N[C@@H](Cc1ccccc1)C(=O)O` [N-acetylated IHPF] (Ac-IHPF-OH), the inhibition at 10 µM under setting [5] is 41%. Also, under setting [2], the inhibition at 100 µM came to 87%.

What is called inhibition is the share of the control response that was lost under treatment.
